Patent publication US8372967B2, “Compounds and methods for modulating expression of GCCR” (Isis Pharmaceuticals, Inc., priority 2006, dated 2013)
Strand notation (5' to 3'): a small letter for the sugar, then the base; units joined by * are phosphorothioate-linked, units joined directly phosphodiester-linked; [ ] holds rarer units or linkages, { } end groups; capitals alone tell only the bases. e = 2'-O-(2-methoxyethyl) (MOE); [5mC] = 5-methylcytosine; d = 2'-deoxy (DNA)

How the values were obtained:
Assay type in all cases: in vivo, mouse
GCGR mRNA [1] = assay: GCGR mRNA levels in liver, C57/BL6 mice, single i.p. dose (Tables 35-41)
Method: Prior to quantitative PCR analysis, primer-probe sets specific to the target gene being measured were evaluated for their ability to be “multiplexed” with a GAPDH amplification reaction. After isolation the RNA is subjected to sequential reverse transcriptase (RT) reaction and real-time PCR, both of which are performed in the same well. RT and PCR reagents were obtained from Invitrogen Life Technologies (Carlsbad, Calif.). […] The RT reaction was carried out by incubation for 30 minutes at 48° C. Following a 10 minute incubation at 95° C. to activate the PLATIN 9M® Taq, 40 cycles of a two-step PCR protocol were carried out: 95° C. for 15 seconds (denaturation) followed by 60° C. for 1.5 minutes (annealing/extension).
170 μL of RiboGreen® working reagent (RiboGreen® reagent diluted 1:350 in 10 mM Tris-HCl, 1 mM EDTA, pH 7.5) was pipetted into a 96-well plate containing 30 μL purified cellular RNA. The plate was read in a CytoFluor® 4000 (PE Applied Biosystems) with excitation at 485 nm and emission at 530 nm.
(§1) Eight-week old male C57/BL6 mice (Jackson Laboratory, Bar Harbor, Me.) were administered a single dose of GCGR oligonucleotide by intraperitoneal injection at a concentration of […]. Each dose group consisted of four animals. Shown in Table 31 are the sequences, motifs and conjugates of the GCGR antisense compounds used in this study. Bolded residues indicate 2′-O-methoxyethyl (2′-MOE) moieties. All compounds comprise phosphorothioate internucleoside linkages throughout and each cytosine is replaced with 5-methylcytosine. ISIS 386626, ISIS 386627 and ISIS 386628 further comprise a C16 conjugate group attached to the 2′-O position of the sugar via a diamide linkage (2′-OCH2C(═O)N(H)(CH2)4N(H)C(═O)—(CH2)15CH3). GCGR antisense compounds target published GCGR sequences, including Genbank® Accession No. BC031885.1 (SEQ ID NO: 7).
(§2) Mice were sacrificed 48 hours following injection to determine serum transaminase levels (Table 32); liver, white adipose tissue (WAT), spleen and kidney weight (Table 33); cholesterol, triglyceride and glucose levels (Table 34); GCGR mRNA levels (Tables 35-41); and full-length and total oligonucleotide concentration in liver and kidney (Table 42). Endpoints were assessed using methods described herein and well known to those of ordinary skill in the art. Data is included from a pre-treatment bleed (Pre-Bleed) and post-treatment bleed (Post-Bleed).
(§3) To determine whether the phenotypic changes shown above correlated with a decrease in GCGR mRNA, treated animals were evaluated for levels of target mRNA in liver by real time PCR according to methods described herein. Tables 35 to 41 show results from direct comparisons of the antisense compounds targeting GCGR nucleic acid for their effect on target expression. Results are expressed as percent of saline control.

[2] = ALT & AST levels and toxic effects, GCGR study (Table 32); conditions: C57/BL6 mice, pre-treatment bleed
Method: as §1, §2

GCGR mRNA [3] = assay: GCGR mRNA levels in liver and estimated ED50, C57/BL6 mice, single i.p. dose of MOE and methyleneoxy BNA gapmers (Tables 44, 45); conditions: liver
Method: Eight-week old male C57/BL6 mice (Jackson Laboratory, Bar Harbor, Me.) were administered a single dose of GCGR antisense compound by intraperitonel (i.p.) injection at a concentration of 10, 3.2, 1, and 0.32 μmol·kg. Each dose group consisted of four animals. Shown in Table 43 are the sequences, motifs and conjugates of the GCGR antisense compounds used in this study. Bolded residues indicate 2′-O-methoxyethyl (2′-MOE) modifications and the italicized residues indicate methyleneoxy (4′-CH2—O-2′) BNA modifications. All antisense compounds comprise phosphorothioate internucleoside linkages throughout and each cytosine is replaced with 5-methylcytosine. GCGR antisense compounds target published GCGR nucleic acids, including Genbank Accession No. BC031885.1 (SEQ ID NO: 7).
as §3, with “by RT,” for “by”, “Table 44” for “Tables 35 to 41”

[4] = Total and full-length antisense compound concentrations in liver and kidney, GCGR study (Table 42); conditions: 48 h after single i.p. dose
Method: as §1, §2
Treatment with the 2-10-2 MOE gapmers led to a significant dose-dependent decrease in GCGR mRNA expression. […] To determine whether the observed increase in efficiency with the short antisense compounds is due to an increase in antisense compound accumulation, full-length and total antisense compound concentration in the liver and kidney were determined.

[5] = Organ weights: liver, WAT, spleen, kidney, GCGR study (Table 33); conditions: 48 h
Method: as §1, §2

Which “GCGR mRNA levels” value (GCGR mRNA [1]; 6.25 mg/kg, Table 35 comparison ISIS 148364 & ISIS 386626) does the source give for “148364 (antisense eT*eG*e[5mC]*eA*e[5mC]*dT*dT*dT*dG*dT*dG*dG*dT*dA*d[5mC]*e[5mC]*eA*eA*eG*eG) [compound 148364]” here?
The value was 62% of saline control.

What about the “GCGR mRNA levels” value (GCGR mRNA [1]; 6.25 mg/kg, Table 36 comparison ISIS 148364 & ISIS 386627) of the same substance?
The value was 86% of saline control.

What about the “GCGR mRNA levels” value (GCGR mRNA [1]; 6.25 mg/kg, Table 37 comparison ISIS 148364 & ISIS 386593) of the same substance?
Its value is 86% of saline control.

What about the “GCGR mRNA levels” value (GCGR mRNA [1]; 6.25 mg/kg, Table 38 comparison ISIS 148364 & ISIS 386628) of the same substance?
The value was 101% of saline control.

And the “GCGR mRNA levels” value (GCGR mRNA [1]; 6.25 mg/kg, Table 39 comparison ISIS 148364 & ISIS 386594)?
Its value is 96% of saline control.

And the “GCGR mRNA levels” value (GCGR mRNA [1]; 12.5 mg/kg, Table 35 comparison ISIS 148364 & ISIS 386626)?
The value was 87% of saline control.

What about the “GCGR mRNA levels” value (GCGR mRNA [1]; 12.5 mg/kg, Table 36 comparison ISIS 148364 & ISIS 386627) of the same substance?
The value was 105% of saline control.

And the “GCGR mRNA levels” value (GCGR mRNA [1]; 12.5 mg/kg, Table 37 comparison ISIS 148364 & ISIS 386593)?
The value was 105% of saline control.

And the “GCGR mRNA levels” value (GCGR mRNA [1]; 12.5 mg/kg, Table 38 comparison ISIS 148364 & ISIS 386628)?
Its value is 98% of saline control.

What about the “GCGR mRNA levels” value (GCGR mRNA [1]; 12.5 mg/kg, Table 39 comparison ISIS 148364 & ISIS 386594) of the same substance?
Its value is 102% of saline control.

And the “GCGR mRNA levels” value (GCGR mRNA [1]; 25 mg/kg, Table 35 comparison ISIS 148364 & ISIS 386626)?
Its value is 79% of saline control.

What about the “GCGR mRNA levels” value (GCGR mRNA [1]; 25 mg/kg, Table 36 comparison ISIS 148364 & ISIS 386627) of the same substance?
The value was 87% of saline control.

What about the “GCGR mRNA levels” value (GCGR mRNA [1]; 25 mg/kg, Table 37 comparison ISIS 148364 & ISIS 386593) of the same substance?
The value was 74% of saline control.

And the “GCGR mRNA levels” value (GCGR mRNA [1]; 25 mg/kg, Table 38 comparison ISIS 148364 & ISIS 386628)?
Its value is 77% of saline control.

And the “GCGR mRNA levels” value (GCGR mRNA [1]; 25 mg/kg, Table 39 comparison ISIS 148364 & ISIS 386594)?
The value was 98% of saline control.

And the “GCGR mRNA levels” value (GCGR mRNA [1]; 50 mg/kg, Table 35 comparison ISIS 148364 & ISIS 386626)?
Its value is 36% of saline control.

What about the “GCGR mRNA levels” value (GCGR mRNA [1]; 50 mg/kg, Table 36 comparison ISIS 148364 & ISIS 386627) of the same substance?
The value was 63% of saline control.

And the “GCGR mRNA levels” value (GCGR mRNA [1]; 50 mg/kg, Table 37 comparison ISIS 148364 & ISIS 386593)?
The value was 56% of saline control.

What about the “GCGR mRNA levels” value (GCGR mRNA [1]; 50 mg/kg, Table 38 comparison ISIS 148364 & ISIS 386628) of the same substance?
Its value is 42% of saline control.

And the “GCGR mRNA levels” value (GCGR mRNA [1]; 50 mg/kg, Table 39 comparison ISIS 148364 & ISIS 386594)?
The value was 59% of saline control.

And the “ALT Pre-Bleed” value ([2]; dose group 6.25 mg/kg)?
Its value is 28 IU/L.

What about the “AST Pre-Bleed” value ([2]; dose group 6.25 mg/kg) of the same substance?
Its value is 47 IU/L.

And the “ALT Pre-Bleed” value ([2]; dose group 12.5 mg/kg)?
Its value is 23 IU/L.

And the “AST Pre-Bleed” value ([2]; dose group 12.5 mg/kg)?
Its value is 44 IU/L.

What about the “ALT Pre-Bleed” value ([2]; dose group 25 mg/kg) of the same substance?
Its value is 26 IU/L.

What about the “AST Pre-Bleed” value ([2]; dose group 25 mg/kg) of the same substance?
The value was 42 IU/L.

And the “ALT Pre-Bleed” value ([2]; dose group 50 mg/kg)?
Its value is 24 IU/L.

And the “AST Pre-Bleed” value ([2]; dose group 50 mg/kg)?
The value was 40 IU/L.

And the “GCGR mRNA levels” value (GCGR mRNA [3]; 0.32 μmol/kg single i.p.)?
Its value is 105% of saline control.

And the “GCGR mRNA levels” value (GCGR mRNA [3]; 1 μmol/kg single i.p.)?
The value was 106% of saline control.

What about the “GCGR mRNA levels” value (GCGR mRNA [3]; 3.2 μmol/kg single i.p.) of the same substance?
Its value is 73% of saline control.

And the “GCGR mRNA levels” value (GCGR mRNA [3]; 10 μmol/kg single i.p.)?
The value was 38% of saline control.

And the “Full-length Antisense Compound Concentration Kidney” value ([4]; kidney)?
The value was 58 µg/g.

What about the “Total Antisense Compound Concentration Kidney” value ([4]; kidney) of the same substance?
Its value is 90 µg/g.

What about the “Full-length Antisense Compound Concentration Liver” value ([4]; liver) of the same substance?
The value was 46 µg/g.

What about the “Total Antisense Compound Concentration Liver” value ([4]; liver) of the same substance?
The value was 54 µg/g.

And the “Organ Weights: Kidney” value ([5]; 6.25 mg/kg single i.p.)?
Its value is 104 % saline control.

And the “Organ Weights: Liver” value ([5]; 6.25 mg/kg single i.p.)?
Its value is 101 % saline control.

And the “Organ Weights: Spleen” value ([5]; 6.25 mg/kg single i.p.)?
The value was 113 % saline control.

And the “Organ Weights: WAT” value ([5]; 6.25 mg/kg single i.p.)?
The value was 89 % saline control.

And the “Organ Weights: Kidney” value ([5]; 12.5 mg/kg single i.p.)?
Its value is 108 % saline control.

And the “Organ Weights: Liver” value ([5]; 12.5 mg/kg single i.p.)?
The value was 100 % saline control.

And the “Organ Weights: Spleen” value ([5]; 12.5 mg/kg single i.p.)?
Its value is 96 % saline control.

What about the “Organ Weights: WAT” value ([5]; 12.5 mg/kg single i.p.) of the same substance?
The value was 84 % saline control.

And the “Organ Weights: Kidney” value ([5]; 25 mg/kg single i.p.)?
The value was 112 % saline control.

And the “Organ Weights: Liver” value ([5]; 25 mg/kg single i.p.)?
The value was 103 % saline control.

And the “Organ Weights: Spleen” value ([5]; 25 mg/kg single i.p.)?
Its value is 115 % saline control.

And the “Organ Weights: WAT” value ([5]; 25 mg/kg single i.p.)?
Its value is 75 % saline control.

What about the “Organ Weights: Kidney” value ([5]; 50 mg/kg single i.p.) of the same substance?
The value was 108 % saline control.

And the “Organ Weights: Liver” value ([5]; 50 mg/kg single i.p.)?
The value was 103 % saline control.

What about the “Organ Weights: Spleen” value ([5]; 50 mg/kg single i.p.) of the same substance?
The value was 123 % saline control.

What about the “Organ Weights: WAT” value ([5]; 50 mg/kg single i.p.) of the same substance?
The value was 80 % saline control.
